The test system of this experiment is PANC-1 cells. Nature of the experiment: cell viability assay in PANC-1 cells (compound alone, + 100 ng/ml TNFa, + 300 ng/ml TRAIL). The experiment is classed as cell-based.
Setting [1] is: Homo sapiens, PANC-1, compound alone, Tables 6-10, read-out: IC50 (μM) in cell viability assay in PANC-1 cells: Compound alone.
Setting [2] is: with 100 ng/ml TNFa, Tables 6-10, read-out: IC50 (μM) in cell viability assay in PANC-1 cells: Compound + 100 ng/ml TNFa.
The mark [3] stands for this setting: with 300 ng/ml TRAIL, Tables 6-10, read-out: IC50 (μM) in cell viability assay in PANC-1 cells: Compound + 300 ng/ml TRAIL.
The mark [4] stands for this setting: Homo sapiens, PANC-1, compound alone, Tables 15-18, read-out: IC50 (uM) in cell viability assay in PANC-1 cells: Cmpnd alone.
The mark [5] stands for this setting: with 100 ng/ml TNFa, Tables 15-18, read-out: IC50 (uM) in cell viability assay in PANC-1 cells: Cmpnd + 100 ng/ml TNFa.
[6] abbreviates: with 300 ng/ml TRAIL, Tables 15-18, read-out: IC50 (uM) in cell viability assay in PANC-1 cells: Cmpnd + 300 ng/ml TRAIL.

Each structure is given as a SMILES string. Like-named read-outs stand apart in the source and are kept apart here.

With `CN[C@@H](C)C(=O)N[C@@H](CCCCCC[C@H](NC(=O)[C@H](C)NC)C(=O)N[C@H]1c2ccccc2C[C@@H]1NC(=O)c1c(OC)cccc1OC)C(=O)N[C@H]1c2ccccc2C[C@@H]1NC(=O)c1c(OC)cccc1OC` [Compound 59], the IC50 is above 1 µM under setting [1], above 1 µM under setting [2] and above 1 µM under setting [3].

With `CN[C@@H](C)C(=O)N[C@@H](CC(=O)NCC=CC=CCNC(=O)C[C@H](NC(=O)[C@H](C)NC)C(=O)N1CCC[C@H]1C(=O)N[C@@H]1CCCc2ccccc21)C(=O)N1CCC[C@H]1C(=O)N[C@@H]1CCCc2ccccc21` [Compound P2-42], the IC50 by setting is: under setting [4], above 1 µM; under setting [5], 0.091 µM; under setting [6], 0.148 µM.

As to `C#CC[C@H](NC(=O)[C@H](C)NC)C(=O)N1C[C@@H](NC(=O)c2cccc(C(=O)N[C@H]3C[C@@H](C(=O)N[C@@H]4CCCc5ccccc54)N(C(=O)[C@@H](NC(=O)[C@H](C)NC)C(C)(C)C)C3)c2)C[C@H]1C(=O)N[C@@H]1CCCc2ccccc21` [Compound H-5], the IC50 runs as follows: under setting [4], above 1 µM; under setting [5], 0.008 µM; under setting [6], 0.009 µM.

In the case of `CN[C@@H](C)C(=O)Nc1nc(CC(=O)NCCc2cn([C@H]3C[C@@H](C(=O)N[C@@H]4CCCc5ccccc54)N(C(=O)[C@@H](NC(=O)[C@H](C)NC)C(C)(C)C)C3)nn2)cs1` [Compound 195], the IC50 by setting is: under setting [1], above 1 µM; under setting [2], above 1 µM; under setting [3], above 1 µM.

`CC[C@H](NC(=O)[C@H](C)NC)C(=O)N[C@@H](CCNC(=O)c1cccc(C(=O)N[C@H]2C[C@@H](C(=O)N[C@@H]3CCCc4ccccc43)N(C(=O)[C@@H](NC(=O)[C@H](C)NC)C(C)(C)C)C2)c1)C(=O)N[C@H](C)c1ccccc1` [Compound 177]: the IC50 by setting is: under setting [1], above 1 µM; under setting [2], 0.035 µM; under setting [3], 0.05 µM.

Consider `CN[C@@H](C)C(=O)N[C@H](C(=O)N1C[C@@H](NC(=O)c2cccc(C(=O)N[C@H]3C[C@@H](C(=O)NC4CCOc5ccccc54)N(C(=O)[C@@H](NC(=O)[C@H](C)NC)C(C)(C)C)C3)c2)C[C@H]1C(=O)NC1CCOc2ccccc21)C(C)(C)C` (single isomer, unassigned) [Compound 66], for which the IC50 (compound alone, Tables 6-10, read-out: IC50 (μM) in cell viability assay in PANC-1 cells: Compound alone) was above 1 µM; the IC50 under setting [2] is 0.012 µM; the IC50 under setting [3] was found to be 0.013 µM.

Consider `CN[C@@H](C)C(=O)N[C@H](C(=O)N1C[C@@H](NC(=O)CC[C@@H](NC(=O)[C@H](NC(=O)[C@@H](C)NC)C(C)C)C(=O)N[C@@H](C)C(C)C)C[C@H]1C(=O)N[C@H](C)c1ccccc1)C(C)C` [Compound 168], for which the IC50 is, setting by setting: under setting [1], above 1 µM; under setting [2], above 1 µM; under setting [3], above 1 µM.

In the case of `CN[C@@H](C)C(=O)N[C@H](C(=O)N1C[C@@H](NC(=O)c2nc[nH]c2C(=O)N[C@H]2C[C@@H](C(=O)N[C@H](C)c3ccccc3)N(C(=O)[C@@H](NC(=O)[C@H](C)NC)C(C)(C)C)C2)C[C@H]1C(=O)N[C@H](C)c1ccccc1)C(C)(C)C` [Compound P3-92], the IC50 runs as follows: (Homo sapiens, PANC-1 cells, compound alone, read-out: IC50 (uM) in cell viability assay in PANC-1 cells, Cmpnd alone) above 1 µM; (PANC-1 cells, + 100 ng/ml TNFa, read-out: IC50 (uM) in cell viability assay in PANC-1 cells, Cmpnd + 100 ng/ml TNFa) 0.099 µM; (PANC-1 cells, + 300 ng/ml TRAIL, read-out: IC50 (uM) in cell viability assay in PANC-1 cells, Cmpnd + 300 ng/ml TRAIL) 0.072 µM.

In the case of `CN[C@@H](C)C(=O)N[C@H](C(=O)N1CCC[C@H]1C(=O)N[C@H]1c2ccccc2C[C@@H]1NC(=O)c1ccc(C(=O)N[C@H]2Cc3ccccc3[C@@H]2NC(=O)[C@@H]2CCCN2C(=O)[C@@H](NC(=O)[C@H](C)NC)C(C)(C)C)cc1)C(C)(C)C` [Compound 124], the IC50 was above 1 µM under setting [1], 0.061 µM under setting [2] and 0.066 µM under setting [3].

On to `CN[C@@H](C)C(=O)N[C@H](C(=O)N1C[C@@H](NC(=O)c2cccc(C(=O)N[C@H]3C[C@@H](C(=O)NCc4ccc(O)c(OC)c4)N(C(=O)[C@@H](NC(=O)[C@H](C)NC)C(C)(C)C)C3)c2)C[C@H]1C(=O)NCc1ccc(O)c(OC)c1)C(C)(C)C` [Compound 6], for which the IC50 under setting [1] was above 1 µM, the IC50 under setting [2] came out at 0.471 µM and the IC50 under setting [3] was 0.31 µM.

The values are drawn from patent US20130344026A1, “Dimeric Smac Mimetics” (priority 2009, published 2013).
